Data set [1] deals with T1, Dual specificity calcium/calmodulin-dependent 3',5'-cyclic nucleotide phosphodiesterase 1B (Homo sapiens, UniProt Q01064). The data set can be described thus: Inhibition of PDE1B (unknown origin).
The target of data set [2] is Dual specificity calcium/calmodulin-dependent 3',5'-cyclic nucleotide phosphodiesterase 1C (Homo sapiens, UniProt Q14123). The data set can be described thus: Inhibition of PDE1C (unknown origin) using [3H]-cAMP as substrate incubated for 1 hr by SPA assay.
Data set [3] addresses cGMP-specific 3',5'-cyclic phosphodiesterase (Homo sapiens, UniProt O76074). The data set can be described thus: Inhibition of PDE5 (unknown origin).
Data set [4] is described as follows: Inhibition of PDE1 (unknown origin). Also on record: species or system Homo sapiens.
Data set [5] can be described thus: Inhibition of PDE3 (unknown origin) by fluorescent based assay. Details: species or system Homo sapiens.
Data set [6] in a line: Binding affinity to PDE1 (unknown origin) assessed as inhibition constant. Details: species or system Homo sapiens.
Data set [7] can be described thus: Inhibition of PDE9 (unknown origin) by fluorescent based assay. Also on record: species or system Homo sapiens.
The target in data set [8] is Phosphodiesterase 4 (Homo sapiens) (UniProt P27815+Q08499+Q07343+Q08493). Kind of data set: Inhibition of PDE4 (unknown origin) at 10 uM relative to control. The format is protein assay.
Data set [9] deals with T1, Dual specificity calcium/calmodulin-dependent 3',5'-cyclic nucleotide phosphodiesterase 1B. The data set can be described thus: Inhibition of PDE1B (unknown origin) using [3H]-cAMP as substrate incubated for 1 hr by SPA assay.
Data set [10] has as its target T2, Dual specificity calcium/calmodulin-dependent 3',5'-cyclic nucleotide phosphodiesterase 1A (Homo sapiens, UniProt P54750). The data set can be described thus: Inhibition of PDE1A (unknown origin) using [3H]-cAMP as substrate incubated for 1 hr by SPA assay.
For data set [11], the target named is T2, Dual specificity calcium/calmodulin-dependent 3',5'-cyclic nucleotide phosphodiesterase 1A. Kind of data set: Inhibition of PDE1A3 (unknown origin).
Data set [12] has as its target T1, Dual specificity calcium/calmodulin-dependent 3',5'-cyclic nucleotide phosphodiesterase 1B. Kind of data set: Inhibition of PDE1B (unknown origin) using [3H]-cGMP substrate incubated for 15 mins by liquid scintillation counting method.
Data set [13] can be described thus: Metabolic stability in rat liver microsomes assessed as half life. The format is ADME, Microsome.
For data set [14], the target named is cGMP-inhibited 3',5'-cyclic phosphodiesterase 3B (Homo sapiens, UniProt Q13370). Kind of data set: Binding affinity to PDE3B (unknown origin) using [3H]cAMP as substrate assessed as inhibition constant incubated for 1 hrs by […] assay. (In general: In SPR one partner is held on a chip, and binding of the other changes the refractive index at the surface.)

For data set [15], the target named is cGMP-inhibited 3',5'-cyclic phosphodiesterase 3A (Homo sapiens, UniProt Q14432). The data set can be described thus: Inhibition of PDE3A (unknown origin).
Data set [16] addresses High affinity 3',5'-cyclic-AMP phosphodiesterase 7A (Homo sapiens, UniProt Q13946). The data set can be described thus: Inhibition of PDE7A (unknown origin).
The target of data set [17] is High affinity cGMP-specific 3',5'-cyclic phosphodiesterase 9A (Homo sapiens, UniProt O76083). Kind of data set: Inhibition of PDE9A (unknown origin).
Data set [18] concerns the target High affinity cAMP-specific and IBMX-insensitive 3',5'-cyclic phosphodiesterase 8A (Homo sapiens, UniProt O60658). The data set can be described thus: Inhibition of full-length recombinant human PDE8A using [3H]-cAMP as substrate incubated for 10 mins by SPA assay.
Data set [19] has as its target 3',5'-cyclic-AMP phosphodiesterase 4D (Homo sapiens, UniProt Q08499). The data set can be described thus: Inhibition of PDE4D (unknown origin).
The target in data set [20] is cGMP-dependent 3',5'-cyclic phosphodiesterase (Homo sapiens, UniProt O00408). Kind of data set: Inhibition of full-length recombinant human PDE2A using [3H]-cGMP as substrate incubated for 10 mins by SPA assay.

One may read the IC50 as the concentration needed to halve the response being measured. The Ki is the dissociation constant of the complex between target and ligand, obtained from inhibition or displacement. Usually inhibition stands for the percentage by which the read-out fell short of the control. High values mean strong suppression, low ones little suppression. The half-life is the time in which the quantity being followed falls by half.

Some results are limits rather than exact numbers.

T2 sequence (P54750 whole entry): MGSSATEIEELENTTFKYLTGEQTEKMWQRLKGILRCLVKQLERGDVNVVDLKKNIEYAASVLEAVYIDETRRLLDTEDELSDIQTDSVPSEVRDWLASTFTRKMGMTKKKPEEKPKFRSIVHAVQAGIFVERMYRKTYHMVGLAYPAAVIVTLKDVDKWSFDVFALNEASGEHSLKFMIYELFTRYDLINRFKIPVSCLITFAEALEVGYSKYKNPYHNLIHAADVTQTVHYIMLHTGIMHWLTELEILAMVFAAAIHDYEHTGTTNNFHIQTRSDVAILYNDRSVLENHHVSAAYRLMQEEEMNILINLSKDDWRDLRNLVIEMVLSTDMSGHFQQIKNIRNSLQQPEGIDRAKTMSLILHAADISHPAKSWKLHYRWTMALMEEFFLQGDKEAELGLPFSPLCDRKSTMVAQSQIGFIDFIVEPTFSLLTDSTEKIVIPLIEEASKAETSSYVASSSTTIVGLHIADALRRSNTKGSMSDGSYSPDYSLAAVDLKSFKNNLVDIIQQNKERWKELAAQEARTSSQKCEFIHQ
Dual specificity calcium/calmodulin-dependent 3',5'-cyclic nucleotide phosphodiesterase 1C, sequence (Q14123 whole entry): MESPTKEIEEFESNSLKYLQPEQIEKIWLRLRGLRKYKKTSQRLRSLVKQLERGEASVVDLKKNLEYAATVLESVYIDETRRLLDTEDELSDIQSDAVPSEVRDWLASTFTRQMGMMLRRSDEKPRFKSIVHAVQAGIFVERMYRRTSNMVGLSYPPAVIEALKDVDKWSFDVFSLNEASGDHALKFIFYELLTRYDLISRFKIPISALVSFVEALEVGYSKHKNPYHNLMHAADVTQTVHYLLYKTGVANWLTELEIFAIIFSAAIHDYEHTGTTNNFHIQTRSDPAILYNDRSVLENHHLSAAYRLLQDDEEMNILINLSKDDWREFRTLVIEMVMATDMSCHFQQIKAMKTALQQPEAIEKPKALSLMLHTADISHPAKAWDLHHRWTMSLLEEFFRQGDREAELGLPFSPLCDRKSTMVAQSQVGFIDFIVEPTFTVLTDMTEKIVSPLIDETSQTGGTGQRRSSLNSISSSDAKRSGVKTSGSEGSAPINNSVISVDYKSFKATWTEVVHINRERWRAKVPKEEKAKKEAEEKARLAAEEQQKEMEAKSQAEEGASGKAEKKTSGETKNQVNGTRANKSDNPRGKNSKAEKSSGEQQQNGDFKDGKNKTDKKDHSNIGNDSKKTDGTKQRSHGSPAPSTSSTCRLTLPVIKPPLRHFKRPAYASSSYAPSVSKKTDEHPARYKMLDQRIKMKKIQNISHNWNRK
T1 sequence (Q01064 whole entry): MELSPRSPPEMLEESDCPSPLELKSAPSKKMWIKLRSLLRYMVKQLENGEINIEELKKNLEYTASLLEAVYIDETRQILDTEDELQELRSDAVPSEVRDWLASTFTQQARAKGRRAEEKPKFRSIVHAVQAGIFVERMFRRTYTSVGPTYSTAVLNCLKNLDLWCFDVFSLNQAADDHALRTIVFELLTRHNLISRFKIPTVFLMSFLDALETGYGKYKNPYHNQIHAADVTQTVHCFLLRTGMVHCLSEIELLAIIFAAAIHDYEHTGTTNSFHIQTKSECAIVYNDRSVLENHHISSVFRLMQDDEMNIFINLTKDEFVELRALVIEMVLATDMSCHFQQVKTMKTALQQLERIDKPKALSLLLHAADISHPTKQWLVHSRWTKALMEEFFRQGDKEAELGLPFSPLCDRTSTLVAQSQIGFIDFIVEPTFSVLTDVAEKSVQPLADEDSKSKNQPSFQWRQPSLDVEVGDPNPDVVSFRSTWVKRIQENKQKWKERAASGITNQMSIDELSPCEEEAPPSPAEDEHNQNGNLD
High affinity 3',5'-cyclic-AMP phosphodiesterase 7A, sequence (Q13946 whole entry): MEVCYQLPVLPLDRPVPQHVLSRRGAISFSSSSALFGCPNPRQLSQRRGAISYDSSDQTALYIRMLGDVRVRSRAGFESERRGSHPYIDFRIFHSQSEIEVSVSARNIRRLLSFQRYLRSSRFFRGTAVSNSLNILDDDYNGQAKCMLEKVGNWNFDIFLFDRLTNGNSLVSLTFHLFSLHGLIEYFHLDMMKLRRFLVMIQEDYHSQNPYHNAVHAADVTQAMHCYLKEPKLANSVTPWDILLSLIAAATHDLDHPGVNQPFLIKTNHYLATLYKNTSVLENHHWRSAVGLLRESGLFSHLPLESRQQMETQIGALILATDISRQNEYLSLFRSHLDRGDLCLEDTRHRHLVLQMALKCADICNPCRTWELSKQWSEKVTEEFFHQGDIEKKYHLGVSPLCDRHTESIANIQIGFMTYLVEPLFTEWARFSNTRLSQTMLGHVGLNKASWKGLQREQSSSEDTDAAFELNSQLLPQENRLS
3',5'-cyclic-AMP phosphodiesterase 4D, sequence (Q08499 whole entry): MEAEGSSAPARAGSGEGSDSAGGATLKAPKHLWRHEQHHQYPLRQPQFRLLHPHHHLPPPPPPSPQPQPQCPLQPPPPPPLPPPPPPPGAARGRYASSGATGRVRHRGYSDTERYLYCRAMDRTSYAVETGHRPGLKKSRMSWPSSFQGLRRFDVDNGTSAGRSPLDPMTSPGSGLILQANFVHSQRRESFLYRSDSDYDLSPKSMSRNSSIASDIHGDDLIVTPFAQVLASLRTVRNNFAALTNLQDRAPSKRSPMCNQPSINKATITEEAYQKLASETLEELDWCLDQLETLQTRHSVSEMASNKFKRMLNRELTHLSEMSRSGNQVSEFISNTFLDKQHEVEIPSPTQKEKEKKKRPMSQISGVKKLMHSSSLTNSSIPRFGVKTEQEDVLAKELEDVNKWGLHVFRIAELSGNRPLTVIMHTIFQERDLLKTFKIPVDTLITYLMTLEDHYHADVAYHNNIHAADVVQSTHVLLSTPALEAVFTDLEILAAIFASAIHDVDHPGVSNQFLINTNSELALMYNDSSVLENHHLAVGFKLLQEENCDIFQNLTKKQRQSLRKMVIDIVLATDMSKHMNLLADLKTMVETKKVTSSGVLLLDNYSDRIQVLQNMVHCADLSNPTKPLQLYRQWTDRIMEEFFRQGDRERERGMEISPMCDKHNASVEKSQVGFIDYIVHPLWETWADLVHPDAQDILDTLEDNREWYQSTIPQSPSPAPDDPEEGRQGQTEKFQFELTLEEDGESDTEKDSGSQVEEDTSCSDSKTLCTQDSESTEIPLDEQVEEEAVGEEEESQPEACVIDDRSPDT
cGMP-inhibited 3',5'-cyclic phosphodiesterase 3A, sequence (Q14432 whole entry): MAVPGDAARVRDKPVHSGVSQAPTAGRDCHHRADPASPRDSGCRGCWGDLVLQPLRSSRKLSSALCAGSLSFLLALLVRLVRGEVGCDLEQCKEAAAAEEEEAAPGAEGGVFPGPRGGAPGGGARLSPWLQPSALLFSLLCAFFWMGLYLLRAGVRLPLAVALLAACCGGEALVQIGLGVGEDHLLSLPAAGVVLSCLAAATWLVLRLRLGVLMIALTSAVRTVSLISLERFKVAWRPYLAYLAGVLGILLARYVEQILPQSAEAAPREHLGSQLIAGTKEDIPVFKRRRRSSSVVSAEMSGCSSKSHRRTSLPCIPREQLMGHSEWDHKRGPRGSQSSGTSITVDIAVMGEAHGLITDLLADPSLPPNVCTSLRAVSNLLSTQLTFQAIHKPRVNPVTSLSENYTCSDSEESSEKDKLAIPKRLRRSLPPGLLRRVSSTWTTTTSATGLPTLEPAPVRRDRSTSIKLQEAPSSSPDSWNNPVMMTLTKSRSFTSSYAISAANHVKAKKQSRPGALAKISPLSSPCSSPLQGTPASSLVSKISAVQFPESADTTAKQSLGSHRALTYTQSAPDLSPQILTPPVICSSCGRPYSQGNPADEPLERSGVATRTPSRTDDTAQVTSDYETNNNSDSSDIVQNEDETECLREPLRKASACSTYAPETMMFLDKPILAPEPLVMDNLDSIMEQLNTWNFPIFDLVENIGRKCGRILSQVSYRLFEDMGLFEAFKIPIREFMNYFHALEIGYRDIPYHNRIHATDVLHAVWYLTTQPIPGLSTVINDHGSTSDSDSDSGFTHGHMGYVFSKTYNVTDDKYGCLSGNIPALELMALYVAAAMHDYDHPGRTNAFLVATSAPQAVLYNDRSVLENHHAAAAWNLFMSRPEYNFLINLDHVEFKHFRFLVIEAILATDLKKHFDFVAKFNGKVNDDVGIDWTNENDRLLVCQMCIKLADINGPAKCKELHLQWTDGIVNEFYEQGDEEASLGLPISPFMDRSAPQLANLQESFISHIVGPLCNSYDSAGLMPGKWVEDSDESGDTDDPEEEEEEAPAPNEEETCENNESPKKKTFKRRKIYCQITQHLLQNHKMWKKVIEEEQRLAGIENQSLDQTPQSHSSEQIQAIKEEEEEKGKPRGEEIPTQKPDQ
High affinity cAMP-specific and IBMX-insensitive 3',5'-cyclic phosphodiesterase 8A, sequence (O60658 whole entry): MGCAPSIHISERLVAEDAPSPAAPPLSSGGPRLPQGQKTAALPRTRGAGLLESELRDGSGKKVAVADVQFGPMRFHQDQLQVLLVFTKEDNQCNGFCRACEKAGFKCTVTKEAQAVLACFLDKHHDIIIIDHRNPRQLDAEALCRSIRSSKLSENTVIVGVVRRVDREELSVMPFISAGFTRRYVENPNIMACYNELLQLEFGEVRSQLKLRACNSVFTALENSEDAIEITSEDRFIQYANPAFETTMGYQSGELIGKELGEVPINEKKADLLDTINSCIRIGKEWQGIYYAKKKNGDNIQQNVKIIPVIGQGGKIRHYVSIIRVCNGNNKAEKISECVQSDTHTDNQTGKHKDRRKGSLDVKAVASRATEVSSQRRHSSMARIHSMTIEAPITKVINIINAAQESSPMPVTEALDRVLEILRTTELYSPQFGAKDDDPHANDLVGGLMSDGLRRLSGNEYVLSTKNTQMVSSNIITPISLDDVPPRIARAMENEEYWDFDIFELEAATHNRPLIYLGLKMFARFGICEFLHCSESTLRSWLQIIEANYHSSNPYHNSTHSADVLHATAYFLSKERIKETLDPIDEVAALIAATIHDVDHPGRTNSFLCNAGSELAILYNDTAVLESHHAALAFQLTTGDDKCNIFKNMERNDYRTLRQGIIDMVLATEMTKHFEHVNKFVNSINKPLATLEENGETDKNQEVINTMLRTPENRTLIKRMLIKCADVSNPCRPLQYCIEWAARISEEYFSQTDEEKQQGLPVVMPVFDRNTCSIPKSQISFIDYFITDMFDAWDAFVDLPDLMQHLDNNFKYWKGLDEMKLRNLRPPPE

With `COc1ccc(Cn2c(=O)n3ncnc3c3cc(CN4CCCOCC4)sc32)cc1`, in [1], the half-maximal inhibitory concentration (IC50) was less than 0.1 µM.
In the case of `COc1cc2ncnc(N3C[C@@H](OO)[C@@H]4OC[C@@H](OC(C)=O)[C@@H]43)c2cc1OC`, the IC50 in [2] came to 2.2 µM.
With `COCc1nc2c([nH]1)c(=O)n(C)c(=O)n2CC(C)C`, the 50% inhibitory concentration (IC50) in [3] amounted to 10 µM; in data set [4] it was 8 µM; in [5], 0.24 µM.
Consider `COc1cc2ncnc(N3C[C@@H](Cl)[C@@H]4OC[C@@H](OC)[C@@H]43)c2cc1OC`, for which the IC50 in data set [2] turned out to be 2.4 µM.
For the compound `CN1C(=O)c2c(nn(Cc3ccc(-c4cccc(F)n4)cc3)c2Nc2ccccc2)N2C1=N[C@@H]1CCC[C@@H]12` [LENRISPODUN PHOSPHATE], the Ki in data set [6] was 5.8e-05 µM.
As to `C[C@@H](Nc1nc2c(cnn2C2CCCC2)c(=O)[nH]1)c1ccc(Cl)cc1`, the IC50 in [4] came out at 0.08 µM; in [7] it was 0.058 µM.
In data set [8], `COc1ccc2c(N3C[C@@H](Cl)[C@@H]4OC[C@@H](OCc5ccccc5)[C@@H]43)ncnc2c1OC` returned an inhibition of 27%. The IC50 in [9] amounted to 2.82 µM; in [10], 4.66 µM; in data set [2] it was 0.573 µM.
In data set [4], `CCCc1nn(C)c2c(=O)[nH]c(-c3cc(S(=O)(=O)N4CCN(C)CC4)ccc3OCC)nc12` had an IC50 of 0.396 µM.
With `O=c1c2c(Cc3ccccc3)n[nH]c2c2cccnc2n1-c1ccccc1`, the values for the IC50 in data set [11] and in data set [1] were 0.032 µM and 0.79 µM, respectively.
On to `Cn1c(=O)c2c(Nc3ccccc3)n(Cc3ccc(-c4cccc(F)n4)cc3)nc2n(CC2CC2)c1=O`, for which the IC50 in [12] is 0.0038 µM. Further, in data set [13], the half-life worked out at 4.5 min.
As for `CNc1ncnc2c1ncn2Cc1ccccc1F` [BW-A78U], the Ki in data set [6] came to 3.7 µM; in data set [14] it was 35 µM. In [3], the IC50 came out at 6.5 µM.
Take `C[C@@H](Nc1nc2c(cnn2C(C)(C)C)c(=O)n1Cc1ccc(F)cc1)c1ccc(Cl)cc1`: the IC50 was more than 10 µM in [15], more than 10 µM in data set [16], 0.0029 µM in data set [4] and more than 10 µM in [17]. In addition, in data set [13], the half-life was 15.8 min.
Turning to `COCCOC(=O)C1=C(C)NC(C)=C(C(=O)OC(C)C)C1c1cccc([N+](=O)[O-])c1` (stereo not given) [NIMODIPINE], the IC50 in data set [10] turned out to be 2 µM.
Consider `Cn1c(=O)c2c(Nc3ccc(F)cc3)n(Cc3ccc(S(C)(=O)=O)cc3)nc2n(CC2CC2)c1=O`, for which the IC50 in [18] was more than 10 µM; in [16], more than 2.5 µM; in [19] it was 1.5 µM; in data set [12], 0.021 µM; in data set [20], 8.52 µM. Moreover, in data set [13], the half-life came to 28.5 min.
As for `CCOC(=O)C1=C[C@]2(CC)CCCN3CCc4c(n1c1ccccc41)[C@@H]32` [VINPOCETINE], the IC50 in [4] came to 30 µM.
Compound `Cn1c(=O)c2c(ncn2C)n(C)c1=O` [CAFFEINE] registered an IC50 in [4] of 479 µM.

The values are drawn from ChEMBL document CHEMBL5537126, “Advances in targeting Phosphodiesterase 1: From mechanisms to potential therapeutics” (Eur J Med Chem, 2024).
